The source of these data is patent US20250041373A1, “EXTRACTION METHOD OF HIBISCUS SABDARIFFA L. TAITUNG NO. 6, HIBISCUS SABDARIFFA L. TAITUNG NO. 6 EXTRACT USING THE SAME, AND USES THEREOF” (WEL-BLOOM BIO-TECH CORPORATION, priority 2023, published 2025).

Molecules are shown by their SMILES.

The test system of the test is B16-F10 melanoma cells. Nature of the test: melanin content analysis in α-MSH-treated B16-F10 melanoma cells. The class given is cell-based. The conditions noted are these: co-treatment with 500 nM α-MSH; positive control, concentration not given; FIG. 6. On the procedure: Further, in the present embodiment, an ability of the Hibiscus sabdariffa L. ‘TAITUNG NO. 6’ extract to inhibit melanin production is evaluated by a melanin content analysis, and a method thereof is as follows. B16-F10 melanoma cells (1×10^5) are seeded in a 24-well culture plate and treated with 500 nM α-melanocyte stimulating hormone (α-MSH) at 37° C. for 24 hours. Then, these cells are treated with various concentrations of the Hibiscus sabdariffa L. ‘TAITUNG NO. 6’ extract for 48 hours, and are treated with trypsin after being rinsed with PBS. A cell pellet is collected by centrifugation at 10,000 g for 20 minutes at a room temperature, and is then lysed with 1N NaOH for 60 minutes. The melanin content is analyzed by comparing an absorbance value of a test sample at 405 nm with a standard curve obtained by using a synthetic melanin.

For `O=c1cc(CO)occ1O` [kojic acid], the “melanin content of the melanoma cells” value was “significantly decreased”.
